In patent US20230109801A1 (Blue Oak Pharmaceuticals, Inc., priority 2020, published 2023):
Counter-ions that a name gives are not always drawn.

System: mice
Test: SmartCube in vivo neuropharmacological behavioral assay
Conditions: for minimal effective dose: Mus musculus, ip, dose having 50% or more total activity in SmartCube, i.p., read-out: MED (minimal effective dose); for AD: antidepressant, percent probability / AG: analgesic, percent probability / AP: antipsychotic, percent probability / AX: anxiolytic, percent probability / CE: cognitive enhancer, percent probability / HA: hallucinogenic, percent probability / MS: mood stabilizer, percent probability / PS, percent probability / SD: sedative hypnotic, percent probability / SE: side effects, percent probability / UN: uncharacterized CNS activity, percent probability / XG: anxiogenic, percent probability: SmartCube, i.p. 15 min before test, at the MED
Method in brief: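 Mice dosed i.p. with compound in Pharmasolve (NMP) 15 min before automated video capture of behavior; doses e.g. 0.3–30 mg/kg. Behavioral signature compared with reference-drug classes, giving per-class probability (0–100, 0 = LOQ); MED = lowest dose with ≥50% total activity.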

| Structure (SMILES) | minimal effective dose [mg/kg] | AD: antidepressant, percent probability | AG: analgesic, percent probability | AP: antipsychotic, percent probability | AX: anxiolytic, percent probability | CE: cognitive enhancer, percent probability | HA: hallucinogenic, percent probability | MS: mood stabilizer, percent probability | PS, percent probability | SD: sedative hypnotic, percent probability | SE: side effects, percent probability | UN: uncharacterized CNS activity, percent probability | XG: anxiogenic, percent probability |
| --- | --- | --- | --- | --- | --- | --- | --- | --- | --- | --- | --- | --- | --- |
| CC1=CC2NC1c1ccccc12 (stereo not drawn) [Compound 61, 9-Methyl-11-azatricyclo[6.2.1.0^2,7]undeca-2,4,6,9-tetraene hydrochloride] | > 30 | ++ (5% ≤ X < 25%) | ++ (5% ≤ X < 25%) | + (LOQ ≤ X < 5%) | + (LOQ ≤ X < 5%) | + (LOQ ≤ X < 5%) | + (LOQ ≤ X < 5%) | + (LOQ ≤ X < 5%) | + (LOQ ≤ X < 5%) | + (LOQ ≤ X < 5%) | + (LOQ ≤ X < 5%) | + (LOQ ≤ X < 5%) | + (LOQ ≤ X < 5%) |
| Cc1ccc2c(c1)C1CCC2N1C(C)C (stereo not drawn) [Compound 21, 4-Methyl-11-(propan-2-yl)-11-azatricyclo[6.2.1.0^2,7]undeca-2,4,6-triene hydrochloride] | 10 to 30 | ++ (5% ≤ X < 25%) | + (LOQ ≤ X < 5%) | + (LOQ ≤ X < 5%) | ++ (5% ≤ X < 25%) | + (LOQ ≤ X < 5%) | + (LOQ ≤ X < 5%) | + (LOQ ≤ X < 5%) | + (LOQ ≤ X < 5%) | + (LOQ ≤ X < 5%) | ++++ (50% ≤ X <1 00%) | ++ (5% ≤ X < 25%) | + (LOQ ≤ X < 5%) |
| Clc1cccc2c1C1C=CC2N1 (stereo not drawn) [Compound 11, 3-Chloro-11-azatricyclo[6.2.1.0^2,7]undeca-2,4,6,9-tetraene hydrochloride] | > 30 | + (LOQ ≤ X < 5%) | + (LOQ ≤ X < 5%) | + (LOQ ≤ X < 5%) | ++ (5% ≤ X < 25%) | ++ (5% ≤ X < 25%) | + (LOQ ≤ X < 5%) | + (LOQ ≤ X < 5%) | + (LOQ ≤ X < 5%) | + (LOQ ≤ X < 5%) | + (LOQ ≤ X < 5%) | ++ (5% ≤ X < 25%) | + (LOQ ≤ X < 5%) |
| CC1CC2c3ccccc3C1N2C(C)C (stereo not drawn) [Compound 51, 9-Methyl-11-(propan-2-yl)-11-azatricyclo[6.2.1.0^2,7]undeca-2,4,6-tri ene hydrochloride] | 1 to 10 | ++++ (50% ≤ X <1 00%) | + (LOQ ≤ X < 5%) | + (LOQ ≤ X < 5%) | ++ (5% ≤ X < 25%) | + (LOQ ≤ X < 5%) | ++ (5% ≤ X < 25%) | + (LOQ ≤ X < 5%) | ++ (5% ≤ X < 25%) | + (LOQ ≤ X < 5%) | + (LOQ ≤ X < 5%) | + (LOQ ≤ X < 5%) | + (LOQ ≤ X < 5%) |
| CC1C(C)C2c3ccccc3C1N2C(C)C (stereo not drawn) [Compound 49, 9,10-Dimethyl-11-(propan-2-yl)-11-azatricyclo[6.2.1.0^2,7]undeca-2,4,6-triene hydrochloride] | 10 to 30 |  |  |  |  |  |  |  |  |  |  |  |  |
| CC(C)N1C2C=CC1c1cc(F)c(F)cc12 [Compound 6, 4,5-Difluoro-11-(propan-2-yl)-11-azatricyclo[6.2.1.0^2,7]undeca-2,4,6,9-tetraene hydrochloride] | > 30 | ++ (5% ≤ X < 25%) | ++++ (50% ≤ X <1 00%) | + (LOQ ≤ X < 5%) | + (LOQ ≤ X < 5%) | + (LOQ ≤ X < 5%) | + (LOQ ≤ X < 5%) | + (LOQ ≤ X < 5%) | ++ (5% ≤ X < 25%) | + (LOQ ≤ X < 5%) | + (LOQ ≤ X < 5%) | + (LOQ ≤ X < 5%) | + (LOQ ≤ X < 5%) |
| CC[C@@H](C)N1C2CCC1c1ccccc12 [Compound 33, 11-[(2R)-Butan-2-yl]-11-azatricyclo[6.2.1.0^2,7]undeca-2,4,6-triene hydrochloride] | 1 to 10 | + (LOQ ≤ X < 5%) | + (LOQ ≤ X < 5%) | + (LOQ ≤ X < 5%) | ++ (5% ≤ X < 25%) | + (LOQ ≤ X < 5%) | + (LOQ ≤ X < 5%) | + (LOQ ≤ X < 5%) | ++ (5% ≤ X < 25%) | + (LOQ ≤ X < 5%) | + (LOQ ≤ X < 5%) | ++++ (50% ≤ X <1 00%) | + (LOQ ≤ X < 5%) |
| CC/C=C/CN1C2CCC1c1ccccc12 [Compound 10, 11-[(2E)-Pent-2-en-1-yl]-11-azatricyclo[6.2.1.0^2,7]undeca-2,4,6-triene hydrochloride] | > 30 | + (LOQ ≤ X < 5%) | + (LOQ ≤ X < 5%) | + (LOQ ≤ X < 5%) | ++ (5% ≤ X < 25%) | + (LOQ ≤ X < 5%) | + (LOQ ≤ X < 5%) | + (LOQ ≤ X < 5%) | + (LOQ ≤ X < 5%) | + (LOQ ≤ X < 5%) | + (LOQ ≤ X < 5%) | + (LOQ ≤ X < 5%) | + (LOQ ≤ X < 5%) |
| CC(C)N1C2CCC1c1cc(F)c(F)cc12 [Compound 8, 4,5-difluoro-11-(propan-2-yl)-11-azatricyclo[6.2.1.0^2,7]undeca-2(7),3,5-triene hydrochloride] | 10 to 30 | + (LOQ ≤ X < 5%) | ++ (5% ≤ X < 25%) | + (LOQ ≤ X < 5%) | ++ (5% ≤ X < 25%) | + (LOQ ≤ X < 5%) | + (LOQ ≤ X < 5%) | + (LOQ ≤ X < 5%) | + (LOQ ≤ X < 5%) | ++ (5% ≤ X < 25%) | ++++ (50% ≤ X <1 00%) | + (LOQ ≤ X < 5%) | + (LOQ ≤ X < 5%) |
| CC1CC2NC1c1ccccc12 (stereo not drawn) [Compound 50, 9-Methyl-11-azatricyclo[6.2.1.0^2,7]undeca-2,4,6-triene hydrochloride] | 10 to 30 | ++ (5% ≤ X < 25%) | ++ (5% ≤ X < 25%) | + (LOQ ≤ X < 5%) | + (LOQ ≤ X < 5%) | ++ (5% ≤ X < 25%) | + (LOQ ≤ X < 5%) | + (LOQ ≤ X < 5%) | + (LOQ ≤ X < 5%) | + (LOQ ≤ X < 5%) | + (LOQ ≤ X < 5%) | +++ (25% ≤ X < 50%) | + (LOQ ≤ X < 5%) |
| c1ccc2c(c1)C1CCC2N1C1CC1 [Compound 45, 11-Cyclopropyl-11-azatricyclo[6.2.1.0^2,7]undeca-2,4,6-triene hydrochloride] | 10 to 30 | ++ (5% ≤ X < 25%) | ++ (5% ≤ X < 25%) | ++ (5% ≤ X < 25%) | ++ (5% ≤ X < 25%) | ++ (5% ≤ X < 25%) | + (LOQ ≤ X < 5%) | + (LOQ ≤ X < 5%) | + (LOQ ≤ X < 5%) | + (LOQ ≤ X < 5%) | + (LOQ ≤ X < 5%) | ++ (5% ≤ X < 25%) | + (LOQ ≤ X < 5%) |
| CCC(C)N1C2CCC1c1ccccc12 (stereo not drawn) [Compound 44, 11-(Butan-2-yl)-11-azatricyclo[6.2.1.0^2,7]undeca-2,4,6-triene hydrochloride] | 1 to 10 | ++++ (50% ≤ X <1 00%) | + (LOQ ≤ X < 5%) | + (LOQ ≤ X < 5%) | ++ (5% ≤ X < 25%) | + (LOQ ≤ X < 5%) | + (LOQ ≤ X < 5%) | + (LOQ ≤ X < 5%) | ++ (5% ≤ X < 25%) | + (LOQ ≤ X < 5%) | + (LOQ ≤ X < 5%) | + (LOQ ≤ X < 5%) | + (LOQ ≤ X < 5%) |
